Experimental data as given in patent publication US20080200454A1, “CARBON-LINKED TETRAHYDRO-PYRAZOLO-PYRIDINE MODULATORS OF CATHEPSIN S” (priority 2007, published 2008).

Each compound was assayed against Recombinant human cathepsin S (CatS) (Homo sapiens, UniProt P25774) (assay: Recombinant human cathepsin S (CatS) inhibition assay, fluorogenic substrate Z-Valine-Valine-Arginine-AMC). Conditions: not given.
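Note: Baculovirus-expressed CatS in pH 5.0 sodium acetate buffer with DTT and NaCl, fluorescence read each minute over 20 min, inhibition derived from rate slope.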

Recombinant human cathepsin S (CatS), sequence (P25774 115-331): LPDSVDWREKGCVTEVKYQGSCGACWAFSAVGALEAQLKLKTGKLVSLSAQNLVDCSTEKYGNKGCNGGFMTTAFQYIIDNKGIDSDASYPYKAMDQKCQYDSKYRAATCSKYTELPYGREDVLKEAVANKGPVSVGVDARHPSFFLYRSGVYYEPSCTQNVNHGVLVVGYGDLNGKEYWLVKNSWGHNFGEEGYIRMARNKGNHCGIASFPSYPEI

SMILES	IC50 [nM]
CS(=O)(=O)N1CCc2c(c(-c3ccc(Cl)c(C#Cc4ccccn4)c3)nn2CCCN2CCOCC2)C1 [Example 22, 3-(4-Chloro-3-pyridin-2-ylethynyl-phenyl)-5-methanesulfonyl-1-(3-morpholin-4-yl-propyl)-4,5,6,7-tetrahydro-1H-pyrazolo[4,3-c]pyridine]	1850
CS(=O)(=O)N1CCc2c(c(-c3ccc(Cl)c(C#CCN)c3)nn2CCCN2CCC(N3CCCC3=O)CC2)C1 [Example 307, 1-[1-(3-{3-[3-(3-Aminoprop-1-yn-1-yl)-4-chlorophenyl]-5-(methylsulfonyl)-4,5,6,7-tetrahydro-1H-pyrazolo[4,3-c]pyridin-1-yl}propyl)piperidin-4-yl]pyrrolidin-2-one]	4650
CS(=O)(=O)N1CCc2c(c(-c3ccc(Cl)c(C#Cc4ccc5c(c4)CN[C@H](C(=O)O)C5)c3)nn2CCCN2CCOCC2)C1 [Example 199, (3S)-7-({2-Chloro-5-[5-(methylsulfonyl)-1-(3-morpholin-4-ylpropyl)-4,5,6,7-tetrahydro-1H-pyrazolo[4,3-c]pyridin-3-yl]phenyl}ethynyl)-1,2,3,4-tetrahydroisoquinoline-3-carboxylic acid]	60
CC1CCCN(CCCc2cc(-c3nn(CCCN4CCC(N5CCCC5=O)CC4)c4c3CN(S(C)(=O)=O)CC4)ccc2Cl)C1 (centres unmarked) [Example 103, 1-{1-[3-(3-{4-Chloro-3-[3-(3-methyl-piperidin-1-yl)-propyl]-phenyl}-5-methanesulfonyl-4,5,6,7-tetrahydro-pyrazolo[4,3-c]pyridin-1-yl)-propyl]-piperidin-4-yl}-pyrrolidin-2-one]	310
NC(=O)N1CCc2c(c(-c3ccc(Cl)c(CCc4ccc(Cl)cc4)c3)nn2C[C@@H](O)CN2CCC(C3CCNCC3)CC2)C1 [Example 479, 1-[(2S)-3-(4,4′-Bipiperidin-1-yl)-2-hydroxypropyl]-3-{4-chloro-3-[2-(4-chlorophenyl)ethyl]phenyl}-1,4,6,7-tetrahydro-5H-pyrazolo[4,3-c]pyridine-5-carboxamide]	20
CNCCCNC(=O)c1cc(C#Cc2cc(-c3nn(CCCN4CCOC[C@@H]4C)c4c3CN(C(=O)C(N)=O)CC4)ccc2Cl)ccc1Cl [Example 273, (S)-5-(5-{5-Aminooxalyl-1-[3-(3-methyl-morpholin-4-yl)-propyl]-4,5,6,7-tetrahydro-1H-pyrazolo[4,3-c]pyridin-3-yl}-2-chloro-phenylethynyl)-2-chloro-N-(3-methylamino-propyl)-benzamide]	40
CN(C)C(=O)N1CCc2c(c(-c3ccc(Cl)c(C#Cc4ccc(CNCc5ccc(Cl)cc5)cc4)c3)nn2CCCN2CCOCC2)C1 [Example 498, 3-(4-Chloro-3-{[4-({[(4-chlorophenyl)methyl]amino}methyl)phenyl]ethynyl}phenyl)-N,N-dimethyl-1-(3-morpholin-4-ylpropyl)-1,4,6,7-tetrahydro-5H-pyrazolo[4,3-c]pyridine-5-carboxamide]	4560
CS(=O)(=O)N1CCc2c(c(-c3ccc(Cl)c(CCCCN4CCOCC4)c3)nn2CCCN2CCC(N3CCCC3=O)CC2)C1 [Example 113, 1-[1-(3-{3-[4-Chloro-3-(4-morpholin-4-yl-butyl)-phenyl]-5-methanesulfonyl-4,5,6,7-tetrahydro-pyrazolo[4,3-c]pyridin-1-yl}-propyl)-piperidin-4-yl]-pyrrolidin-2-one]	3580
NC(=O)N1CCc2c(c(-c3ccc(Cl)c(C#Cc4ccc(Cl)c(CNC5CCCC5)c4)c3)nn2CCCN2CCSCC2)C1 [Example 599, 3-[4-Chloro-3-({4-chloro-3-[(cyclopentylamino)methyl]phenyl}ethynyl)phenyl]-1-(3-thiomorpholin-4-ylpropyl)-1,4,6,7-tetrahydro-5H-pyrazolo[4,3-c]pyridine-5-carboxamide]	30
NC(=O)N1CCc2c(c(-c3ccc(Cl)c(CCc4ccc(Cl)cc4)c3)nn2CCCN2CCOCC2)C1 [Example 145, 3-{4-Chloro-3-[2-(4-chloro-phenyl)-ethyl]-phenyl}-1-(3-morpholin-4-yl-propyl)-1,4,6,7-tetrahydro-pyrazolo[4,3-c]pyridine-5-carboxylic acid amide]	90

Same assay, conditions: CatS IC50

SMILES	IC50 [nM]
CS(=O)(=O)N1CCc2c(c(-c3ccc(Cl)c(C#Cc4ccc(CNCc5ccc(Cl)cc5)c(Cl)c4)c3)nn2CCCN2CCOCC2)C1 [Example 546, 1-[2-Chloro-4-({2-chloro-5-[5-(methylsulfonyl)-1-(3-morpholin-4-ylpropyl)-4,5,6,7-tetrahydro-1H-pyrazolo[4,3-c]pyridin-3-yl]phenyl}ethynyl)phenyl]-N-[(4-chlorophenyl)methyl]methanamine]	300
CC(C)(C)OC(=O)N1CCC(C2CCN(C[C@H](O)Cn3nc(-c4ccc(Cl)c(C#CCc5ccccc5)c4)c4c3CCN(S(C)(=O)=O)C4)CC2)CC1 [Example 232, 1,1-Dimethylethyl 1′-[(2S)-3-{3-[4-chloro-3-(3-phenylprop-1-yn-1-yl)phenyl]-5-(methylsulfonyl)-4,5,6,7-tetrahydro-1H-pyrazolo[4,3-c]pyridin-1-yl}-2-hydroxypropyl]-4,4′-bipiperidine-1-carboxylate]	1530
CS(=O)(=O)N1CCc2c(c(-c3ccc(Cl)c(C#Cc4ccc(CNCc5ccc(Cl)cc5)cc4)c3)nn2CCCN2CCN(c3ccncc3)CC2)C1 [Example 416, 1-{4-[(2-Chloro-5-{5-(methylsulfonyl)-1-[3-(4-pyridin-4-ylpiperazin-1-yl)propyl]-4,5,6,7-tetrahydro-1H-pyrazolo[4,3-c]pyridin-3-yl}phenyl)ethynyl]phenyl}-N-[(4-chlorophenyl)methyl]methanamine]	70
COC(=O)[C@@H]1Cc2ccc(C#Cc3cc(-c4nn(CCCN5CCOCC5)c5c4CN(S(C)(=O)=O)CC5)ccc3Cl)cc2CN1 [Example 198, Methyl (3S)-7-({2-chloro-5-[5-(methylsulfonyl)-1-(3-morpholin-4-ylpropyl)-4,5,6,7-tetrahydro-1H-pyrazolo[4,3-c]pyridin-3-yl]phenyl}ethynyl)-1,2,3,4-tetrahydroisoquinoline-3-carboxylate]	70
CCN(CC)Cc1ccc(C#Cc2cc(-c3nn(CCCN4CCOCC4)c4c3CN(S(C)(=O)=O)CC4)ccc2Cl)cc1 [Example 317, N-{[4-({2-Chloro-5-[5-(methylsulfonyl)-1-(3-morpholin-4-ylpropyl)-4,5,6,7-tetrahydro-1H-pyrazolo[4,3-c]pyridin-3-yl]phenyl}ethynyl)phenyl]methyl}-N-ethylethanamine]	2710
CS(=O)(=O)N1CCc2c(c(-c3ccc(Cl)c(C#Cc4ccc5c(c4)CN[C@H](C(=O)N4CCOCC4)C5)c3)nn2CCCN2CCOCC2)C1 [Example 194, (3S)-7-({2-Chloro-5-[5-(methylsulfonyl)-1-(3-morpholin-4-ylpropyl)-4,5,6,7-tetrahydro-1H-pyrazolo[4,3-c]pyridin-3-yl]phenyl}ethynyl)-3-(morpholin-4-ylcarbonyl)-1,2,3,4-tetrahydroisoquinoline]	20
CSc1ccc(CNCc2ccc(C#Cc3cc(-c4nn(CCCN5CCSCC5)c5c4CN(C(N)=O)CC5)ccc3Cl)cc2)cc1 [Example 550, 3-[4-Chloro-3-({4-[({[4-(methylsulfanyl)phenyl]methyl}amino)methyl]phenyl}ethynyl)phenyl]-1-(3-thiomorpholin-4-ylpropyl)-1,4,6,7-tetrahydro-5H-pyrazolo[4,3-c]pyridine-5-carboxamide]	100
CS(=O)(=O)N1CCc2c(c(-c3ccc(Cl)c(C#Cc4ccc(CN[C@@H](CO)c5ccccc5)cc4)c3)nn2CCCN2CCOCC2)C1 [Example 209, (2R)-2-({[4-({2-Chloro-5-[5-(methylsulfonyl)-1-(3-morpholin-4-ylpropyl)-4,5,6,7-tetrahydro-1H-pyrazolo[4,3-c]pyridin-3-yl]phenyl}ethynyl)phenyl]methyl}amino)-2-phenylethanol]	100
CCOC(=O)CN1CCc2cc(C#Cc3cc(-c4nn(CCCN5CCOCC5)c5c4CN(S(C)(=O)=O)CC5)ccc3Cl)ccc2C1 [Example 526, Ethyl [6-({2-chloro-5-[5-(methylsulfonyl)-1-(3-morpholin-4-ylpropyl)-4,5,6,7-tetrahydro-1H-pyrazolo[4,3-c]pyridin-3-yl]phenyl}ethynyl)-3,4-dihydroisoquinolin-2(1H)-yl]acetate]	370
CS(=O)(=O)N1CCc2c(c(-c3ccc(Cl)c(C#Cc4ccc(CNCc5ccc(Cl)cc5)cc4)c3)nn2CCCN2CCC(CO)CC2)C1 [Example 337, (1-{3-[3-(4-Chloro-3-{[4-({[(4-chlorophenyl)methyl]amino}methyl)phenyl]ethynyl}phenyl)-5-(methylsulfonyl)-4,5,6,7-tetrahydro-1H-pyrazolo[4,3-c]pyridin-1-yl]propyl}piperidin-4-yl)methanol]	70
C[C@H]1COCCN1CCCn1nc(-c2ccc(Cl)c(C#Cc3ccc(Cl)c(COCCCO)c3)c2)c2c1CCN(C(=O)C(N)=O)C2 [Example 274, (S)-2-{3-{4-Chloro-3-[4-chloro-3-(3-hydroxy-propoxymethyl)-phenylethynyl]-phenyl}-1-[3-(3-methyl-morpholin-4-yl)-propyl]-1,4,6,7-tetrahydro-pyrazolo[4,3-c]pyridin-5-yl}-2-oxo-acetamide]	40

Same assay, conditions: CatS IC50, Table 2; average of results obtained

SMILES	IC50 [nM]
CS(=O)(=O)N1CCc2c(c(-c3ccc(Cl)c(C#Cc4ccc(F)cc4)c3)nn2CCCN2CCOCC2)C1 [Example 31, 3-[4-Chloro-3-(4-fluoro-phenylethynyl)-phenyl]-5-methanesulfonyl-1-(3-morpholin-4-yl-propyl)-4,5,6,7-tetrahydro-1H-pyrazolo[4,3-c]pyridine]	440

Same assay, conditions: read-out: CatS IC50; Table 4; average of results obtained

SMILES	IC50 [nM]
CC(C)(C)OC(=O)N1Cc2cc(C#Cc3cc(-c4nn(CCCN5CCOCC5)c5c4CN(S(C)(=O)=O)CC5)ccc3Cl)ccc2C[C@H]1C(=O)O [Example 464, (3S)-7-({2-Chloro-5-[5-(methylsulfonyl)-1-(3-morpholin-4-ylpropyl)-4,5,6,7-tetrahydro-1H-pyrazolo[4,3-c]pyridin-3-yl]phenyl}ethynyl)-2-{[(1,1-dimethylethyl)oxy]carbonyl}-1,2,3,4-tetrahydroisoquinoline-3-carboxylic acid]	630
